Our source for the IC50 values is US20250136576A1, “Heterocyclic Compounds and Uses Thereof” (ACEA Therapeutics, Inc., priority 2021, published 2025).

Bounds are passed on as bounds.

What is called IC50 is the concentration that gives 50% inhibition.

The subject of the first assay is KM12-luc cells. Briefly: Cell proliferation and growth inhibition assay (CCK-8) in KM12-luc. Conditions: KM12-Luc, 72 h, KM12-luc cells, treated with test compounds for 72 hrs, CCK-8 viability; read-out: NTRK IC50 in KM12-luc. The assay is classed as cell-based. The essentials: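 Cells were grown at 37 °C, 5% CO2 with 10% FBS: MV-4-11 in IMDM, H1975 in RPMI 1640, KM12-luc in DMEM. Viability was read by CCK-8 (1-4 hrs reagent incubation, absorbance at OD450). IC50 came from a non-linear sigmoidal dose-response fit.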
Turning to `COCCCN(C)c1cc(N2CCN(C)CC2)ccc1C(=O)Nc1c[nH]c2cnc(Nc3cc(F)cc(F)c3)nc12` [Compound 494, N-(2-((3,5-difluorophenyl)amino)-5H-pyrrolo[3,2-d]pyrimidin-7-yl)-2-((3-methoxypropyl)(methyl)amino)-4-(4-methylpiperazin-1-yl)benzamide], the IC50 was over 1 µM.

Take `CN1CCN(c2ccc(C(=O)Nc3c[nH]c4ccc(Nc5cc(F)cc(F)c5)cc34)c(NC3CCOCC3)c2)CC1` [Compound 497, N-(5-((3,5-difluorophenyl)amino)-1H-indol-3-yl)-4-(4-methylpiperazin-1-yl)-2-((tetrahydro-2H-pyran-4-yl)amino)benzamide]: the IC50 came out at 4.03 µM.

Regarding `CN(C)CCN(C)c1ccc(C(=O)Nc2c[nH]c3ccc(Nc4cc(F)cc(F)c4)cc23)c(NC2CCOCC2)c1` [Compound 500, N-(5-((3,5-difluorophenyl)amino)-1H-indol-3-yl)-4-((2-(dimethylamino)ethyl)(methyl)amino)-2-((tetrahydro-2H-pyran-4-yl)amino)benzamide], the 50% inhibitory concentration (IC50) is 3.57 µM.

As for `COCCCN(C)c1cc(N2CCN(C)CC2)ccc1C(=O)Nc1c[nH]c2ccc(Nc3cc(F)cc(F)c3)cc12` [Compound 501, N-(5-((3,5-difluorophenyl)amino)-1H-indol-3-yl)-2-((3-methoxypropyl)(methyl)amino)-4-(4-methylpiperazin-1-yl)benzamide], the IC50 is over 1 µM.

`CN1CCN(c2ccc(C(=O)Nc3c[nH]c4cnc(Oc5cc(F)cc(F)c5)nc34)c(NC3CCOCC3)c2)CC1` [Compound 503, N-(2-(3,5-difluorophenoxy)-5H-pyrrolo[3,2-d]pyrimidin-7-yl)-4-(4-methylpiperazin-1-yl)-2-((tetrahydro-2H-pyran-4-yl)amino)benzamide]: the IC50 turned out to be 3.64 µM.

As to `CN1CCN(c2ccc(C(=O)Nc3c[nH]c4ccc(Cc5cc(F)cc(F)c5)cc34)c(NC3CCOCC3)c2)CC1` [Compound 505, N-(5-(3,5-difluorobenzyl)-1H-indol-3-yl)-4-(4-methylpiperazin-1-yl)-2-((tetrahydro-2H-pyran-4-yl)amino)benzamide], the IC50 is over 1 µM.

`CN(C)CCN(C)c1ccc(C(=O)Nc2c[nH]c3ccc(Cc4cc(F)cc(F)c4)cc23)c(NC2CCOCC2)c1` [Compound 507, N-(5-(3,5-difluorobenzyl)-1H-indol-3-yl)-4-(2-(dimethylamino)ethyl)(methylamino)-2-((tetrahydro-2H-pyran-4-yl)amino) benzamide]: the IC50 was over 1 µM.

In the case of `COCCCN(C)c1cc(N2CCN(C)CC2)ccc1C(=O)Nc1c[nH]c2ccc(Cc3cc(F)cc(F)c3)cc12` [Compound 508, N-(5-(3,5-difluorobenzyl)-1H-indol-3-yl)-2-((3-methoxypropyl)(methyl)amino)-4-(4-methylpiperazin-1-yl)benzamide], the IC50 is over 1 µM.

Regarding `COc1cnc(Nc2ccc(N3CC[C@@H](N(C)C)C3)c(NC(C)=O)c2)nc1-c1c[nH]c2c(F)cccc12` [Compound R-280, (R)—N-(2-(3-(dimethylamino)pyrrolidin-1-yl)-5-((4-(7-fluoro-1H-indol-3-yl)-5-methoxypyrimidin-2-yl)amino)phenyl)acetamide], the IC50 was 0.0156 µM.

Regarding `COc1cnc(Nc2ccc(N3CC[C@@H](N(C)C)C3)c(NC(C)=O)c2)nc1-c1cn(C)c2c(F)cccc12` [Compound R-281, (R)—N-(2-(3-(dimethylamino)pyrrolidin-1-yl)-5-((4-(7-fluoro-1-methyl-1H-indol-3-yl)-5-methoxypyrimidin-2-yl)amino)phenyl)acetamide], the IC50 was determined as 0.121 µM.

As for `COc1cnc(Nc2ccc(N3CC[C@@H](N(C)C)C3)c(NC(C)=O)c2)nc1-c1c[nH]c2c(OC)cccc12` [Compound R-288, (R)—N-(2-(3-(dimethylamino)pyrrolidin-1-yl)-5-((5-methoxy-4-(7-methoxy-1H-indol-3-yl)pyrimidin-2-yl)amino)phenyl)acetamide], the IC50 is 0.0155 µM.

As to `CN(C)[C@@H]1CCN(c2ccc(Nc3ncc(C(F)(F)F)c(-c4c[nH]c5c(F)cccc45)n3)cc2N)C1` [Compound R-345, (R)-4-(3-(dimethylamino)pyrrolidin-1-yl)-N^1-(4-(7-fluoro-1H-indol-3-yl)-5-(trifluoromethyl)pyrimidin-2-yl)benzene-1,3-diamine], the IC50 worked out at 0.0062 µM.

Take `CC(=O)Nc1cc(Nc2ncc(C(F)(F)F)c(-c3cn(C)c4c(F)cccc34)n2)ccc1N1CC[C@@H](N(C)C)C1` [Compound R-353, (R)—N-(2-(3-(dimethylamino)pyrrolidin-1-yl)-5-((4-(7-fluoro-1-methyl-1H-indol-3-yl)-5-(trifluoromethyl)pyrimidin-2-yl)amino)phenyl)acetamide]: the IC50 is 0.0643 µM.

In the case of `CN(C)[C@@H]1CCN(c2ccc(Nc3ncc(C(F)(F)F)c(-c4cn(C)c5c(F)cccc45)n3)cc2N)C1` [Compound R-354, (R)-4-(3-(dimethylamino)pyrrolidin-1-yl)-N^1-(4-(7-fluoro-1-methyl-1H-indol-3-yl)-5-(trifluoromethyl)pyrimidin-2-yl)benzene-1,3-diamine], the half-maximal inhibitory concentration (IC50) is 0.0691 µM.

As for `Cc1cccc2c(-c3nc(Nc4ccc(N5CC[C@@H](N(C)C)C5)c(N)c4)ncc3C(F)(F)F)c[nH]c12` [Compound R-367, (R)-4-(3-(dimethylamino)pyrrolidin-1-yl)-N^1-(4-(7-methyl-1H-indol-3-yl)-5-(trifluoromethyl)pyrimidin-2-yl)benzene-1,3-diamine], the IC50 worked out at 0.0057 µM.

Turning to `CC(=O)Nc1cc(Nc2ncc(Cl)c(-c3cn(C)c4c(F)cccc34)n2)ccc1N1CC[C@@H](N(C)C)C1` [Compound R-415, (R)—N-(5-((5-chloro-4-(7-fluoro-1-methyl-1H-indol-3-yl)pyrimidin-2-yl)amino)-2-(3-(dimethylamino)pyrrolidin-1-yl)phenyl)acetamide], the IC50 came to 0.0667 µM.

For `Cc1cccc2c(-c3nc(Nc4ccc(N5CC[C@@H](N(C)C)C5)c(N)c4)ncc3Cl)c[nH]c12` [Compound R-425, (R)—N^1-(5-chloro-4-(7-methyl-1H-indol-3-yl)pyrimidin-2-yl)-4-(3-(dimethylamino)pyrrolidin-1-yl)benzene-1,3-diamine], the IC50 came to 0.0113 µM.

Regarding `Cc1cccc2c(-c3nc(Nc4ccc(N5CC[C@@H](N(C)C)C5)c(N)c4)ncc3Cl)cn(C)c12` [Compound R-431, (R)—N^1-(5-chloro-4-(1,7-dimethyl-1H-indol-3-yl)pyrimidin-2-yl)-4-(3-(dimethylamino)pyrrolidin-1-yl)benzene-1,3-diamine], the half-maximal inhibitory concentration (IC50) was determined as 0.0318 µM.

For the compound `CC(=O)Nc1cc(Nc2ncc(Cl)c(-c3cn(C)c4c(C)cccc34)n2)ccc1N1CC[C@@H](N(C)C)C1` [Compound R-432, (R)—N-(5-((5-chloro-4-(1,7-dimethyl-1H-indol-3-yl)pyrimidin-2-yl)amino)-2-(3-(dimethylamino)pyrrolidin-1-yl)phenyl)acetamide], the IC50 was found to be 0.13 µM.

On to `CN(C)[C@H]1CCN(c2ccc(Nc3ncc(C(F)(F)F)c(-c4c[nH]c5c(F)cccc45)n3)cc2N)C1` [Compound S-345, (S)-4-(3-(dimethylamino)pyrrolidin-1-yl)-N^1-(4-(7-fluoro-1H-indol-3-yl)-5-(trifluoromethyl)pyrimidin-2-yl)benzene-1,3-diamine], for which the IC50 amounted to 0.0082 µM.

As for `CC(=O)Nc1cc(Nc2ncc(C(F)(F)F)c(-c3cn(C)c4c(F)cccc34)n2)ccc1N1CC[C@H](N(C)C)C1` [Compound S-353, (S)—N-(2-(3-(dimethylamino)pyrrolidin-1-yl)-5-((4-(7-fluoro-1-methyl-1H-indol-3-yl)-5-(trifluoromethyl)pyrimidin-2-yl)amino)phenyl)acetamide], the IC50 stood at 0.0352 µM.

For `CN(C)[C@H]1CCN(c2ccc(Nc3ncc(C(F)(F)F)c(-c4cn(C)c5c(F)cccc45)n3)cc2N)C1` [Compound S-354, (S)-4-(3-(dimethylamino)pyrrolidin-1-yl)-N^1-(4-(7-fluoro-1-methyl-1H-indol-3-yl)-5-(trifluoromethyl)pyrimidin-2-yl)benzene-1,3-diamine], the IC50 stood at 0.0563 µM.

As for `Cc1cccc2c(-c3nc(Nc4ccc(N5CC[C@H](N(C)C)C5)c(N)c4)ncc3C(F)(F)F)c[nH]c12` [Compound S-367, (S)-4-(3-(dimethylamino)pyrrolidin-1-yl)-N^1-(4-(7-methyl-1H-indol-3-yl)-5-(trifluoromethyl)pyrimidin-2-yl)benzene-1,3-diamine], the IC50 was determined as 0.0046 µM.

`COc1cccc2c(-c3ncc(C(F)(F)F)c(Nc4ccc(N5CC[C@H](N(C)C)C5)c(NC(C)=O)c4)n3)c[nH]c12` [Compound S-382b, (S)—N-(2-(3-(dimethylamino)pyrrolidin-1-yl)-5-((2-(7-methoxy-1H-indol-3-yl)-5-(trifluoromethyl)pyrimidin-4-yl)amino)phenyl)acetamide]: the IC50 was determined as 0.349 µM.

The assay is the same for the next values; noted with them: KM12-luc cells, treated with test compounds for 72 hrs, CCK-8 viability; read-out: NTRK IC50 in KM12-luc.
For the compound `COc1cccc2c(-c3nc(Nc4ccc(N5CC[C@@H](N(C)C)C5)c(N)c4)ncc3Cl)cn(C)c12` [Compound R-414, (R)—N^1-(5-chloro-4-(7-methoxy-1-methyl-1H-indol-3-yl)pyrimidin-2-yl)-4-(3-(dimethylamino)pyrrolidin-1-yl)benzene-1,3-diamine], the IC50 worked out at 0.0124 µM.

Regarding `COc1cccc2c(-c3nc(Nc4ccc(N5CC[C@@H](N(C)C)C5)c(N)c4)ncc3Cl)cn(C)c12` [Compound R-420, (R)—N^1-(5-chloro-4-(7-methoxy-1-methyl-1H-indol-3-yl)pyrimidin-2-yl)-4-(3-(dimethylamino)pyrrolidin-1-yl)benzene-1,3-diamine], the 50% inhibitory concentration (IC50) was 0.072 µM.

With `COc1cccc2c(-c3nc(Nc4ccc(N5CC[C@@H](N(C)C)C5)c(N)c4)ncc3Cl)cn(C)c12` [Compound R-439, (R)—N^1-(5-chloro-4-(7-methoxy-1-methyl-1H-indol-3-yl)pyrimidin-2-yl)-4-(3-(dimethylamino)pyrrolidin-1-yl)benzene-1,3-diamine], the IC50 came to 0.128 µM.
